Source: paper PMC10495264 (Nature Cell Biology, 2023)
“And” between values parts separate entries of the source, which are not always exact repeats. Identical values can stand only once.

What was measured:
mTORC1 [1] = test: mTORC1 activity in mouse embryonic fibroblasts (MEFs), p-S6K^T389/S6K immunoblot; assay type: cell-based; details: for p-S6K(T389)/S6K, Mean: ED Fig. 4e, relative to DMSO
[2] = tested on: mTOR lysosomal localization; test: Co-localization of mTOR with LAMP2, confocal microscopy; assay type: cell-based, human; details: for mTOR/LAMP2 colocalization (Manders' coefficient), Mean: mean of pooled individual cells (ED Fig. 8d), DMSO mean 0.383214
yeast cells = test: Drop spot growth assays on rapamycin and/or cerulenin plates; assay type: cell-based, Saccharomyces cerevisiae; details: low / sublethal doses combined
Procedure: Yeast cells (Saccharomyces cerevisiae) were cultured in liquid SC medium (1.7 g l^−1 yeast nitrogen base (cat. no. 1545, CONDA), 5 g l^−1 ammonium sulfate (cat. no. 4808211, MP Biomedicals), 20 g l^−1 glucose (cat. no. 1422, AppliChem), 2 g l^−1 amino acid dropout –His (D9520, US Biological) and 35 mg l^−1 histidine (A1341, AppliChem) at 30 °C to the exponential growth phase, unless otherwise stated in the figure legends. All yeast strains used in this study are listed in Supplementary Table 1.

mTORC1 [3] = test: mTORC1 activity in HEK293FT cells (WT and knockout lines), phosphorylation of S6K, 4E-BP1, Grb10, TFEB by immunoblot; assay type: cell-based, human
Procedure: Data represent the median fluorescence intensity of OPP Alexa Fluor 488; n = 6 biological replicates from two independent experiments. b,c,e,g,i,k,l, Data are the mean ± s.e.m. *P < 0.05, **P < 0.005, ***P < 0.0005. […] Source numerical data and unprocessed blots are provided. Source data
(§1) Amino-acid-starvation experiments were carried out as described before[42],[43]. […] For the lipid depletion experiments, cells were cultured in medium containing 10% charcoal-stripped FBS (A3382101, Thermo Fisher Scientific), instead of full FBS, for 24 h before treatments with FASN inhibitors were performed. For FA supplementation, each FA was first conjugated to 10% FA-free BSA (fraction V; cat. no. 10735086001, Roche) for 1 h at 50 °C in a 50:50 volumetric ratio. The BSA-conjugated C16:0, C16:1, C18:1 and C18:2 FAs (100 μM) were then added to the media both 16 h previous to and at the start of the treatment with FASN inhibitors.
(§2) For standard SDS–PAGE and immunoblotting experiments, cells from a well of a 12-well plate were lysed in 250 μl of ice-cold Triton lysis buffer (50 mM Tris pH 7.5, 1% Triton X-100, 150 mM NaCl, 50 mM NaF, 2 mM Na-vanadate and 0.011 g ml^−1 β-glycerophosphate) supplemented with 1×PhosSTOP phosphatase inhibitors (cat. no. 4906837001, Roche) and 1×cOmplete protease inhibitors (cat. no. 11836153001, Roche) for 10 min on ice. The samples were clarified by centrifugation (20,000g, 15 min, 4 °C) and the supernatants were boiled in 1×SDS sample buffer (5×SDS sample buffer: 350 mM Tris–HCl pH 6.8, 30% glycerol, 600 mM DTT, 12.8% SDS and 0.12% bromophenol blue). The band intensities were quantified using the ImageJ software.

mTORC2 = mTORC2 activity in HEK293FT cells, p-AKT^S473/AKT immunoblot; assay type: cell-based, human
Procedure: Phosphorylation of Ypk1 was used as the TORC2 readout. Phosphorylation of Snf1 was used as the AMPK activation readout. Total Snf1 was detected with an antibody to a histidine (His) stretch in Snf1. […] Source numerical data and unprocessed blots are provided. Source data
as §1, §2

AMPK = AMPK and ACC1 phosphorylation immunoblot; assay type: cell-based, human; details: relative to DMSO
Procedure: as §2
(§3) Data in graphs are shown as the mean ± s.e.m. *P < 0.05, **P < 0.005. Source numerical data and unprocessed blots are provided. Source data

mTORC1 [4] = test: mTORC1 activity in U2OS cells, immunoblot; assay type: cell-based, human; details: Fasnall 25 μM 30 min; cerulenin 50 μM 2 or 4 h
mTORC1 [5] = test: mTORC1 activity in HEK293T cells (WT, AMPKα1/2 KO, DEPDC5 and RagA/B triple KO), p-S6K^T389/S6K immunoblot; assay type: cell-based, human
Procedure: Source numerical data and unprocessed blots are provided. Source data
as §2
Data in graphs are shown as the mean ± s.e.m. *P < 0.05, **P < 0.005, ***P < 0.0005. Source numerical data and unprocessed blots are provided. Source data

ERK1/2 = ERK1/2 phosphorylation immunoblot; assay type: cell-based, human; details: ED Fig. 5m; relative to DMSO
Procedure: as §2, §3

mTORC1 [6] = target: T1, mTORC1 (Homo sapiens, UniProt P42345); test: mTORC1 complex stability/composition, mTOR co-immunoprecipitation of Raptor and mLST8; details: cells treated with cerulenin (4 h)
T1 construct: endogenous mTORC1 complexes were purified from HEK293FT cells; endogenous in cells; host or cells: HEK293FT (immunoprecipitation of endogenous mTOR); the 4E-BP1 substrate was made in E. coli BL21 RP
Procedure: For the mammalian endogenous protein co-immunoprecipitation experiments, cells of a near-confluent 10-cm dish were lysed in CHAPS IP buffer (50 mM Tris pH 7.5, 0.3% CHAPS detergent, 150 mM NaCl, 50 mM NaF, 2 mM Na-vanadate and 0.011 g ml^−1 β-glycerophosphate) supplemented with 1×PhosSTOP phosphatase inhibitors and 1×EDTA-free cOmplete protease inhibitors (11873580001, Roche) for 10 min on ice. The samples were clarified by centrifugation (20,000g, 15 min, 4 °C) and the supernatants were subjected to immunoprecipitation by the addition of 3 μl of each antibody, incubation at 4 °C with rotation for 3 h, followed by incubation (4 °C with rotation) with 30 μl of a pre-washed Protein A agarose bead slurry (cat. no. 11134515001, Roche) for an additional hour. The beads were then washed four times with CHAPS IP wash buffer (50 mM Tris pH 7.5, 0.3% CHAPS detergent, 150 mM NaCl and 50 mM NaF) and boiled in 1×SDS loading buffer. A portion of the samples was kept aside as the input before the addition of antibodies. The samples were analysed by SDS–PAGE and the presence of co-immunoprecipitated proteins was detected by immunoblotting with the appropriate specific antibodies.
To test whether Mal-CoA influences mTORC1 complex stability/composition, 1 mM Mal-CoA lithium salt solution was added to the lysates before the immunoprecipitation of mTOR, as described earlier. […]

[7] = Fasnall 25 μM 30 min, cerulenin 50 μM 4 h

C/C=C/C/C=C/CCC(=O)[C@H]1O[C@H]1C(N)=O [cerulenin]
p-S6K(T389)/S6K, Mean (mTORC1 [1]; 2h): 0.8743
p-S6K(T389)/S6K, Mean (mTORC1 [1]; 4h): 0.3448
mTORC1 activity in MEFs (mTORC1 [1]; Fasnall 25 μM 30 min, cerulenin 50 μM 2 or 4 h): downregulates
mTOR/LAMP2 colocalization (Manders' coefficient) ([2]; Ceru 2h, Replicate 1, individual cells (ED Fig. 8d)): 0.444 and 0.38 and 0.427 and 0.715 and 0.517 and 0.116 and 0.414 and 0.188 and 0.399 and 0.209 and 0.241 and 0.28 and 0.349 and 0.265 and 0.345 and 0.315 and 0.445 and 0.603 and 0.407 and 0.223 and 0.37 and 0.271 and 0.185
mTOR/LAMP2 colocalization (Manders' coefficient) ([2]; Ceru 2h, Replicate 3, individual cells (ED Fig. 8d)): 0.327 and 0.378 and 0.177 and 0.225 and 0.217 and 0.171 and 0.169 and 0.316 and 0.307 and 0.469 and 0.189 and 0.266 and 0.237 and 0.271 and 0.179 and 0.175 and 0.173 and 0.339
mTOR/LAMP2 colocalization (Manders' coefficient), Mean ([2]; Ceru 2h): 0.3276
mTOR/LAMP2 colocalization (Manders' coefficient) ([2]; Ceru 4h, Replicate 1, individual cells (ED Fig. 8d)): 0.295 and 0.311 and 0.327 and 0.333 and 0.217 and 0.408 and 0.17 and 0.428 and 0.395 and 0.227 and 0.135 and 0.322 and 0.371 and 0.272 and 0.219 and 0.26 and 0.303
mTOR/LAMP2 colocalization (Manders' coefficient) ([2]; Ceru 4h, Replicate 3, individual cells (ED Fig. 8d)): 0.327 and 0.378 and 0.177 and 0.225 and 0.217 and 0.171 and 0.169 and 0.316 and 0.307 and 0.469 and 0.189 and 0.266 and 0.237 and 0.271 and 0.179 and 0.175 and 0.173 and 0.339
mTOR/LAMP2 colocalization (Manders' coefficient), Mean ([2]; Ceru 4h): 0.2619
mTOR localization at lysosomes (co-localization with LAMP2) ([2]; HEK293FT, 25 μM Fasnall or 50 μM cerulenin): significant dissociation
combined effect of rapamycin and cerulenin on yeast growth (yeast cells): additive effect
p-Grb10(S476)/Grb10, Mean (mTORC1 [3]; ED Fig. 3e, relative to DMSO): 0.6323
p-TFEB(S211)/TFEB, Mean (mTORC1 [3]; ED Fig. 3f, relative to DMSO): 0.6501
p-4E-BP1(T37/46)/4E-BP1, Mean (mTORC1 [3]; ED Fig. 3g, relative to DMSO): 0.1632
p-S6K(T389)/S6K, Mean (mTORC1 [3]; ED Fig. 6b, relative to Luc): 0.5038
mTORC1 activity towards Grb10 and TFEB (cerulenin: also 4E-BP1) (mTORC1 [3]; [7]): downregulates
mTORC1 activity (phosphorylation of S6K, 4E-BP1, Grb10 and TFEB) (mTORC1 [3]; HEK293FT cells, Fasnall, cerulenin or siFASN): suppressed
p-S6K(T389)/S6K, Mean (mTORC1 [3]; HEK293FT, 50 μM cerulenin 2h, DMSO = 1, n = 8, Fig. 2i): 0.7401
p-S6K(T389)/S6K, Mean (mTORC1 [3]; HEK293FT, 50 μM cerulenin 4h, DMSO = 1, n = 8, Fig. 2i): 0.4346
p-S6K(T389)/S6K, Mean (mTORC1 [3]; TSC1 KO HEK293FT, cerulenin 50 μM, 4 h, respective DMSO = 1, n = 3, Fig. 5p): 0.4527
p-S6K(T389)/S6K, Mean (mTORC1 [3]; WT HEK293FT, cerulenin 50 μM, 4 h, respective DMSO = 1, n = 3, Fig. 5p): 0.3623
phosphorylation of Akt (mTORC2 substrate) (mTORC2; [7]): did not significantly alter
p-AKT(S473)/AKT, Mean (mTORC2; cerulenin 50 μM, 4 h, DMSO = 1, n = 3, Fig. 3d): 0.8351
p-AMPK(T172)/AMPK, Mean (AMPK; ED Fig. 5e): 0.8121
p-ACC1(S79)/ACC1, Mean (AMPK; ED Fig. 5f): 1.111
mTORC1 activity in U2OS (mTORC1 [4]): downregulates
p-S6K(T389)/S6K, Mean (mTORC1 [5]; ED Fig. 7c, AMPKa1/2 KO, 2h, relative to AMPKa1/2 KO DMSO): 0.7893
p-S6K(T389)/S6K, Mean (mTORC1 [5]; ED Fig. 7c, AMPKa1/2 KO, 4h, relative to AMPKa1/2 KO DMSO): 0.6235
p-S6K(T389)/S6K, Mean (mTORC1 [5]; ED Fig. 7c, WT, 2h, relative to WT DMSO): 0.7439
p-S6K(T389)/S6K, Mean (mTORC1 [5]; ED Fig. 7c, WT, 4h, relative to WT DMSO): 0.528
p-S6K(T389)/S6K, Mean (mTORC1 [5]; ED Fig. 7h, DEPDC5+RagA/B KO, 2h, relative to DEPDC5+RagA/B KO DMSO): 0.6252
p-S6K(T389)/S6K, Mean (mTORC1 [5]; ED Fig. 7h, DEPDC5+RagA/B KO, 4h, relative to DEPDC5+RagA/B KO DMSO): 0.4969
p-S6K(T389)/S6K, Mean (mTORC1 [5]; ED Fig. 7h, WT, 2h, relative to WT DMSO): 0.7136
p-S6K(T389)/S6K, Mean (mTORC1 [5]; ED Fig. 7h, WT, 4h, relative to WT DMSO): 0.5404
p-ERK(T202/Y204)/ERK, Mean (ERK1/2): 1.697
stability and composition of mTORC1 (mTORC1 [6]): not affected
